# Data reported in patent US7816522B2, “Triazolone derivatives” (Eisai Co., Ltd., priority 2006, dated 2010).
# Counter-ions that a name gives are not always drawn.
# Target: T1, human clotting factor VIIa (Homo sapiens, UniProt P08709)
# T1 construct: a human clotting factor VIIa (hereinafter, “Factor VIIa”) purified sample; purchased Enzyme Research Laboratories HFVIIa
# Test: Inhibitory activity against clotting factor VIIa (chromogenic substrate Spectrozyme FVIIa, TF/Factor VIIa enzyme solution)
# Type: biochemical
# Conditions: human Factor VIIa 5 nmol/L with human TF 10 nmol/L, room temperature 40 minutes, 405 nm
# How it was run: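 Human Factor VIIa (5 nmol/L) with human TF (10 nmol/L) in Tris-BSA buffer pH 7.4 containing 15 mmol/L CaCl2 and cephalin, with Spectrozyme FVIIa substrate. Reaction 40 min at room temperature; 4-nitroanilide read at 405 nm. IC50 by non-linear regression over 100 μmol/L–0.1 nmol/L.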
# T1 sequence (P08709 213-466 limits assumed): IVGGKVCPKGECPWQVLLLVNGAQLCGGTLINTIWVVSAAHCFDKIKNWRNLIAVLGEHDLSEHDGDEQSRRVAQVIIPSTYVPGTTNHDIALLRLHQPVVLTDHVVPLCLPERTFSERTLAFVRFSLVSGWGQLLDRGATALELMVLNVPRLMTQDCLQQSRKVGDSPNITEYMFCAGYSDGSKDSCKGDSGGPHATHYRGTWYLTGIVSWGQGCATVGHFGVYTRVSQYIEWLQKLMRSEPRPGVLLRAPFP
# T1 sequence (P08709 61-212 limits assumed): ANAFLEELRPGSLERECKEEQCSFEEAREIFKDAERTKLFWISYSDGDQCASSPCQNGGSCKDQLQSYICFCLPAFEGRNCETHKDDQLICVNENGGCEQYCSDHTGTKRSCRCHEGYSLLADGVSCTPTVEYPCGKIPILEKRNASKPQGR
# T1 sequence (P13726 33-295 partner): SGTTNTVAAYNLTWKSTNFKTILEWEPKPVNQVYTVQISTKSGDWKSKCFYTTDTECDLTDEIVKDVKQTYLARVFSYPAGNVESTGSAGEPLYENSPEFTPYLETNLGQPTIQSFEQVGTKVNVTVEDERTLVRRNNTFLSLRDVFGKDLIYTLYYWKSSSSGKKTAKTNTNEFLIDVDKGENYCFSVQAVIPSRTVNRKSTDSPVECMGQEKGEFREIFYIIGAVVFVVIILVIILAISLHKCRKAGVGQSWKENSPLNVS
row,Compound,IC50
1,"CCOc1cc(OCCF)cc(C(Nc2ccc(C(=N)N)cc2)c2nn(-c3ncccn3)c(=O)[nH]2)c1 (racemic) [Example 78, (R) and (S)-4-({[3-ethoxy-5-(2-fluoroethoxy)phenyl]-(5-oxo-1-pyrimidin-2-yl-4,5-dihydro-1H-[1,2,4]triazol-3-yl)methyl}amino)benzamidine trifluoroacetate]",0.0125 µM
2,"CCOc1cc(OCC)cc(C(Nc2ccc(C(=N)N)cc2)c2nn(-c3ncccn3)c(=O)[nH]2)c1 (racemic) [Example 79, (R) and (S)-4-{[(3,5-diethoxyphenyl)-(5-oxo-1-pyrimidin-2-yl-4,5-dihydro-1H-[1,2,4]triazol-3-yl)methyl]amino}benzamidine trifluoroacetate]",0.0076 µM
3,"CCOc1cc(OCCF)cc(C(Nc2ccc(C(=N)N)cc2)c2nn(-c3cccnn3)c(=O)[nH]2)c1 (racemic) [Example 80, (R) and (S)-4-({[3-ethoxy-5-(2-fluoroethoxy)phenyl]-(5-oxo-1-pyridazin-3-yl-4,5-dihydro-1H-[1,2,4]triazol-3-yl)methyl}amino)benzamidine acetate]",0.0068 µM
4,"COc1cc(C(Nc2ccc(C(=N)N)cc2)c2nn(-c3ncccn3)c(=O)[nH]2)ccc1OCCF (racemic) [Example 81, (R) and (S)-4-({[4-(2-fluoroethoxy)-3-methoxyphenyl]-(5-oxo-1-pyrimidin-2-yl-4,5-dihydro-1H-[1,2,4]triazol-3-yl)methyl}amino)benzamidine acetate]",0.0186 µM
5,"COc1cc(C(Nc2ccc(C(=N)N)cc2)c2nn(-c3ncccn3)c(=O)[nH]2)cc2c1OCC2OC (racemic) [Example 82, (R) and (S)-4-({(3,7-dimethoxy-2,3-dihydrobenzofuran-5-yl)-(5-oxo-1-pyrimidin-2-yl-4,5-dihydro-1H-[1,2,4]triazol-3-yl)methyl}amino)benzamidine acetate]",0.0075 µM
6,"C=CCOc1cc(COC)cc(C(Nc2ccc(C(=N)N)cc2)c2nn(-c3ncccn3)c(=O)[nH]2)c1 (racemic) [Example 85, 4-{[(R) and (S)-(3-allyloxy-5-methoxymethylphenyl)-(5-oxo-1-pyrimidin-2-yl-4,5-dihydro-1H-[1,2,4]triazol-3-yl)methyl]amino}benzamidine acetate]",0.0153 µM
7,"COc1cc(C(Nc2ccc(C(=N)N)cc2)c2nn(-c3cccnn3)c(=O)[nH]2)cc(OC)c1OC (racemic) [Example 88, 4-{[(R) and (S)-(5-oxo-1-pyridazin-3-yl-4,5-dihydro-1H-[1,2,4]triazol-3-yl)-(3,4,5-trimethoxyphenyl)methyl]amino}benzamidine trifluoroacetate]",0.0085 µM
8,"COc1cc(C(Nc2ccc(C(=N)N)cc2)c2nn(-c3cccnn3)c(=O)[nH]2)cc(OCCF)c1OC (racemic) [Example 89, 4-{[(R) and (S)-[3-(2-fluoroethoxy)-4,5-dimethoxyphenyl]-(5-oxo-1-pyridazin-3-yl-4,5-dihydro-1H-[1,2,4]triazol-3-yl)methyl]amino}benzamidine acetate]",0.0092 µM
9,"COCCOc1cc(OC)cc(C(Nc2ccc(C(=N)N)cc2)c2nn(-c3ncccn3)c(=O)[nH]2)c1F (racemic) [Example 92, 4-{[(R) and (S)-[2-fluoro-5-methoxy-3-(2-methoxyethoxy)phenyl]-(5-oxo-1-pyrimidin-2-yl-4,5-dihydro-1H-[1,2,4]triazol-3-yl)methyl]amino}benzamidine acetate]",0.0116 µM
10,"COc1cc(C)cc(C(Nc2ccc(C(=N)N)cc2)c2nn(-c3ncccn3)c(=O)[nH]2)c1 (racemic) [Example 93, 4-{[(R) and (S)-(3-methoxy-5-methylphenyl)-(5-oxo-1-pyrimidin-2-yl-4,5-dihydro-1H-[1,2,4]triazol-3-yl)methyl]amino}benzamidine acetate]",0.0303 µM
11,"COCCOc1cc(C)cc(C(Nc2ccc(C(=N)N)cc2)c2nn(-c3ncccn3)c(=O)[nH]2)c1 (racemic) [Example 94, 4-{[(R) and (S)-[3-(2-methoxyethoxy)-5-methylphenyl]-(5-oxo-1-pyrimidin-2-yl-4,5-dihydro-1H-[1,2,4]triazol-3-yl)methyl]amino}benzamidine acetate]",0.0127 µM
12,"COc1ccccc1-n1nc(C(Nc2ccc(C(=N)N)cc2)c2cc3c(c(OC)c2)OCOC3)[nH]c1=O (racemic) [Example 95, 4-({(R) and (S)-(8-methoxy-4H-benzo[1,3]dioxin-6-yl)-[1-(2-methoxyphenyl)-5-oxo-4,5-dihydro-1H-[1,2,4]triazol-3-yl]methyl}amino)benzamidine acetate]",0.0013 µM
13,"CCOc1ccc(F)c(C(Nc2ccc(C(=N)N)cc2)c2nn(-c3ncccn3)c(=O)[nH]2)c1 (racemic) [Example 96, 4-{[(R) and (S)-(5-ethoxy-2-fluorophenyl)-(5-oxo-1-pyrimidin-2-yl-4,5-dihydro-1H-[1,2,4]triazol-3-yl)methyl]amino}benzamidine acetate]",0.017 µM
14,"Cc1cc(C(Nc2ccc(C(=N)N)cc2)c2nn(-c3ncccn3)c(=O)[nH]2)cc2c1OCOC2 (racemic) [Example 97, 4-{[(R) and (S)-(8-methyl-4H-benzo[1,3]dioxin-6-yl)-(5-oxo-1-pyrimidin-2-yl-4,5-dihydro-1H-[1,2,4]triazol-3-yl)methyl]amino}benzamidine acetate]",0.0113 µM
15,"N=C(N)c1ccc(NC(c2nn(-c3ncccn3)c(=O)[nH]2)c2cc(OCCF)cc(OCCF)c2F)cc1 (racemic) [Example 98, 4-{[(R) and (S)-[2-fluoro-3,5-bis-(2-fluoroethoxy)phenyl]-(5-oxo-1-pyrimidin-2-yl-4,5-dihydro-1H-[1,2,4]triazol-3-yl)methyl]amino}benzamidine acetate]",0.0287 µM
16,"COc1cc(OCC(F)F)c(F)c(C(Nc2ccc(C(=N)N)cc2)c2nn(-c3ncccn3)c(=O)[nH]2)c1 (racemic) [Example 99, 4-{[(R) and (S)-[3-(2,2-difluoroethoxy)-2-fluoro-5-methoxyphenyl]-(5-oxo-1-pyrimidin-2-yl-4,5-dihydro-1H-[1,2,4]triazol-3-yl)methyl]amino}benzamidine acetate]",0.0039 µM
17,"COc1cc(OCCF)c(F)c(C(Nc2ccc(C(=N)N)cc2)c2nn(-c3cnccn3)c(=O)[nH]2)c1 (racemic) [Example 100, 4-{[(R) and (S)-[2-fluoro-3-(2-fluoroethoxy)-5-methoxyphenyl]-(5-oxo-1-pyrazin-2-yl-4,5-dihydro-1H-[1,2,4]triazol-3-yl)methyl]amino}benzamidine acetate]",0.0053 µM
18,"COc1cc(F)c(C(Nc2ccc(C(=N)N)cc2)c2nn(-c3cnccn3)c(=O)[nH]2)cc1OC (racemic) [Example 101, 4-{[(R) and (S)-(2-fluoro-4,5-dimethoxyphenyl)-(5-oxo-1-pyrazin-2-yl-4,5-dihydro-1H-[1,2,4]triazol-3-yl)methyl]amino}benzamidine acetate]",0.011 µM
19,"COc1cc(C(Nc2ccc(C(=N)N)cc2)c2nn(-c3cnccn3)c(=O)[nH]2)cc2c1OCOC2 (racemic) [Example 102, 4-{[(R) and (S)-(8-methoxy-4H-benzo[1,3]dioxin-6-yl)-(5-oxo-1-pyrazin-2-yl-4,5-dihydro-1H-[1,2,4]triazol-3-yl)methyl]amino}benzamidine acetate]",0.0115 µM
20,"COc1cc(OCF)c(F)c(C(Nc2ccc(C(=N)N)cc2)c2nn(-c3ncccn3)c(=O)[nH]2)c1 (racemic) [Example 103, 4-{[(R) and (S)-(2-fluoro-3-fluoromethoxy-5-methoxyphenyl)-(5-oxo-1-pyrimidin-2-yl-4,5-dihydro-1H-[1,2,4]triazol-3-yl)methyl]amino}benzamidine acetate]",0.0089 µM
21,"COc1cc(OCF)cc(C(Nc2ccc(C(=N)N)cc2)c2nn(-c3ncccn3)c(=O)[nH]2)c1 (racemic) [Example 104, 4-{[(R) and (S)-(3-fluoromethoxy-5-methoxyphenyl)-(5-oxo-1-pyrimidin-2-yl-4,5-dihydro-1H-[1,2,4]triazol-3-yl)methyl]amino}benzamidine acetate]",0.0089 µM
22,"COC(=O)c1ccccc1-n1nc(C(Nc2ccc(C(=N)N)cc2)c2cc(OC)c(OC)cc2F)[nH]c1=O (racemic) [Example 108, (R) and (S)-2-{3-[(4-carbamimidoylphenylamino)-(2-fluoro-4,5-dimethoxyphenyl)methyl]-5-oxo-4,5-dihydro-[1,2,4]triazol-1-yl}benzoic acid methyl ester acetate]",0.008 µM
23,"COc1cc(F)c(C(Nc2ccc(C(=N)N)cc2)c2nn(-c3ccccc3C(N)=O)c(=O)[nH]2)cc1OC (racemic) [Example 109, (R) and (S)-2-{3-[(4-carbamimidoylphenylamino)-(2-fluoro-4,5-dimethoxyphenyl)methyl]-5-oxo-4,5-dihydro-1H-[1,2,4]triazol-1-yl}benzamide acetate]",0.0079 µM
24,"COc1ccc(C(Nc2ccc(C(=N)N)cc2)c2nn(-c3ccccc3C(N)=O)c(=O)[nH]2)cc1OC (racemic) [Example 110, (R) and (S)-2-{3-[(4-carbamimidoylphenylamino)-(3,4-dimethoxyphenyl)methyl]-5-oxo-4,5-dihydro-1H-[1,2,4]triazol-1-yl}benzamide acetate]",0.0066 µM
25,"COc1cc(F)c(C(Nc2ccc(C(=N)N)cc2)c2nn(-c3ncccn3)c(=O)[nH]2)cc1OC (racemic) [Example 111, 4-{[(R) and (S)-(2-fluoro-4,5-dimethoxyphenyl)-(5-oxo-1-pyrimidin-2-yl-4,5-dihydro-1H-[1,2,4]triazol-3-yl)methyl]amino}benzamidine acetate]",0.0113 µM
26,"CCOc1cc(C(Nc2ccc(C(=N)N)cc2)c2nn(-c3ncccn3)c(=O)[nH]2)c(F)cc1OC (racemic) [Example 115, (R) and (S)-4-{[(5-ethoxy-2-fluoro-4-methoxyphenyl)-(5-oxo-1-pyrimidin-2-yl-4,5-dihydro-1H-[1,2,4]triazol-3-yl)methyl]amino}benzamidine acetate]",0.0115 µM
